Assay [1] deals with p-ERK in AGS cells (K-Ras G12D). As to the kind of experiment: Phospho-ERK1/2(THR202/TYR204) HTRF assay, AGS. The format is cell-based. The settings on record: Homo sapiens, 2 h, 2 hours incubation. (In TR-FRET formats the signal depends on donor and acceptor labels being close together.)
Assay [2] deals with p-ERK in SW620 cells (K-Ras G12V). Nature of the assay: Phospho-ERK1/2(THR202/TYR204) HTRF assay, SW620. The format is cell-based. The settings on record: Homo sapiens, SW-620, 2 h, 2 hours incubation.
Description: p-ERK (MAPK pathway) inhibition activity of each of compounds in a variety of K-Ras mutant and K-Ras WT cell lines indicated in Table 23 was evaluated.
Each of cells in culture medium was seeded in 96-well plates at density indicated in Table 23 and then put in a cell incubator to incubate overnight. The next day, the culture medium was removed and the compound diluted in assay medium was added in each well. […] 10 μL of cell lysates from the 96-well plates were transferred to a 384-well plate (Greiner) containing 2.5 μL/well HTRF® pre-mixed antibodies (Cisbio 64AERPEH). The plate was incubated 4 hours at 25° C. and then read HTRF signals on Tecan Spark multimode microplate reader. The data were analyzed using a 4-parameter logistic model to calculate IC50 values.
The test system of the next assay is AGS cells (K-Ras G12D). Nature of the assay: 2D cell growth inhibition assay, AGS. The format is cell-based. The settings on record: Homo sapiens, 144 h, 6 days, absolute IC50.
Assay [3] deals with AsPC-1 cells (K-Ras G12D). As to the kind of experiment: 2D cell growth inhibition assay, AsPC-1. The settings on record: Homo sapiens, ASPC1, 144 h, AsPC-1, K-Ras G12D, 6 days, absolute IC50. The format is cell-based.
Description: The cell growth inhibition activity of each of compounds was tested by performing cell growth inhibition assays on a variety of K-Ras mutant and K-Ras WT cell lines indicated in Table 25.
Each of cells in culture medium was plated in TC-treated 96-well plates at a density indicated in Table 25 and incubated in a cell incubator overnight. The next day, each of compounds was diluted in culture medium and added to the plates. After 6 days incubation in cell incubator, the cell viability was detected by CellTiter-Glo® Cell Viability Assay kit (Promega).
In a further assay the test system is SW620 cells (K-Ras G12V). Nature of the assay: 2D cell growth inhibition assay, SW620. Type of assay: cell-based. The conditions noted are these: Homo sapiens, SW-620, 144 h, 6 days, absolute IC50.
In assay [4] the target is T1, K-Ras G12V (Homo sapiens, UniProt P01116, G12V). Nature of the assay: SOS1 catalyzed nucleotide exchange assay (GDP form K-Ras), K-Ras G12V. The settings on record: read-out: K-Ras G12V GDP Biochemical Activity (IC50).
The target in assay [5] is T1, K-Ras G12V. As to the kind of experiment: biochemical.

In general, IC50 refers to the point on the concentration scale where inhibition reaches its midpoint.

T1 sequence (P01116 1-169 isoform P01116-2 G12V): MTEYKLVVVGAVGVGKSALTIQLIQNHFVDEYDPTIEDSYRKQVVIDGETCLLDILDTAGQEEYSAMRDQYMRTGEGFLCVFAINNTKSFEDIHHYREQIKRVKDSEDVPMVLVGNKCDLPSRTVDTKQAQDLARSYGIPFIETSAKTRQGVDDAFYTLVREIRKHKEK

With `C#Cc1c(F)ccc2cc(O)cc(-c3ncc4c(N5CCOCC(COC)C5)nc(OC[C@@]56CCCN5C[C@H](F)C6)nc4c3F)c12` (some centres unmarked) [Compound 87], the IC50 turned out to be 1.5 nM in assay [1]; 5.98 nM in assay [2]; 3.41 nM with AGS cells (K-Ras G12D); 32.8 nM in assay [3]; 27.2 nM with SW620 cells (K-Ras G12V).

For `C#Cc1c(F)ccc2cc(O)cc(-c3ncc4c(N5CCOCC(=O)C5)nc(OC[C@@]56CCCN5C[C@H](F)C6)nc4c3F)c12` [Compound 30, 4-(7-(8-ethynyl-7-fluoro-3-hydroxynaphthalen-1-yl)-8-fluoro-2-(((2R,7aS)-2-fluorotetrahydro-1H-pyrrolizin-7a(5H)-yl)methoxy)pyrido[4,3-d]pyrimidin-4-yl)-1,4-oxazepan-6-one trifluoroacetic acid], the IC50 amounted to 2.04 nM in assay [1] and 3.97 nM in assay [2].

As for `C#Cc1c(F)ccc2c(F)c(O)cc(-c3ncc4c(N5CCCOCC5)nc(OC[C@@]56CCCN5C[C@H](F)C6)nc4c3F)c12` [Compound 107, 5-ethynyl-1,6-difluoro-4-(8-fluoro-2-(((2R,7aS)-2-fluorotetrahydro-1H-pyrrolizin-7a(5H)-yl)methoxy)-4-(1,4-oxazepan-4-yl)pyrido[4,3-d]pyrimidin-7-yl)naphthalen-2-ol], the IC50 was found to be 66.1 nM in assay [1]; 40.2 nM in assay [2]; 504 nM in the assay with AGS cells (K-Ras G12D); 885 nM in assay [3]; 185 nM in the assay with SW620 cells (K-Ras G12V).

`C#Cc1c(F)c(F)cc2cc(O)cc(-c3ncc4c(N5CCCOCC5)nc(OC[C@@]56CCCN5C[C@H](F)C6)nc4c3F)c12` [Compound 29]: the IC50 in assay [1] was 3.3 nM; in assay [2] it was 7.74 nM; in the assay with AGS cells (K-Ras G12D) it was 8.22 nM; in assay [3], 53.6 nM; with SW620 cells (K-Ras G12V), 4.62 nM.

Regarding `C#Cc1c(F)ccc2cc(O)cc(-c3ncc4c(N5[C@H]6COC[C@H](C)[C@@H]5C6)nc(OC[C@@]56CCCN5C[C@H](F)C6)nc4c3F)c12` [Compound 110, 5-ethynyl-6-fluoro-4-(8-fluoro-2-(((2R,7aS)-2-fluorotetrahydro-1H-pyrrolizin-7a(5H)-yl)methoxy)-4-((1R,5R,6S)-5-methyl-3-oxa-7-azabicyclo[4.1.1]octan-7-yl)pyrido [4,3-d]pyrimidin-7-yl)naphthalen-2-ol], the IC50 is 6.63 nM on K-Ras G12V [4]; 44.3 nM in assay [1]; 62.2 nM in assay [2]; 81 nM in the assay on SW620 cells (K-Ras G12V); > 1000 nM against K-Ras G12V [5].

As for `C#Cc1c(F)ccc2cc(O)cc(-c3ncc4c(N5CCCOCC56CC6)nc(OC[C@@]56CCCN5C[C@H](F)C6)nc4c3F)c12` [Compound 50, 5-ethynyl-6-fluoro-4-(8-fluoro-2-(((2R,7aS)-2-fluorotetrahydro-1H-pyrrolizin-7a(5H)-yl)methoxy)-4-(8-oxa-4-azaspiro[2.6]nonan-4-yl)pyrido[4,3-d]pyrimidin-7-yl)naphthalen-2-ol trifluoroacetic acid], half-maximal inhibition in assay [2] (IC50) was put at 121 nM.

Turning to `C#Cc1c(F)ccc2cc(O)cc(-c3ncc4c(N5CCOCC6(CC6)C5)nc(OC[C@@]56CCCN5C[C@H](F)C6)nc4c3F)c12` [Compound 103, 5-ethynyl-6-fluoro-4-(8-fluoro-2-(((2R,7aS)-2-fluorotetrahydro-1H-pyrrolizin-7a(5H)-yl)methoxy)-4-(5-oxa-8-azaspiro[2.6]nonan-8-yl)pyrido[4,3-d]pyrimidin-7-yl) naphthalen-2-ol], the IC50 turned out to be 187 nM in assay [2] and 109 nM with SW620 cells (K-Ras G12V).

As for `C#Cc1c(F)ccc2cc(O)cc(-c3ncc4c(N5CCCOCC5)nc(OC[C@H]5CCCN5C)nc4c3F)c12` [Compound 2, (R)-5-ethynyl-6-fluoro-4-(8-fluoro-2-((1-methylpyrrolidin-2-yl)methoxy)-4-(1,4-oxazepan-4-yl)pyrido[4,3-d]pyrimidin-7-yl)naphthalen-2-ol], the IC50 on K-Ras G12V [4] amounted to 4.99 nM; in the assay with AGS cells (K-Ras G12D) it was 178 nM; in assay [3] it was 293 nM; in the assay on SW620 cells (K-Ras G12V) it was 182 nM; at K-Ras G12V [5], 207 nM.

Regarding `C#Cc1c(F)ccc2cc(O)cc(-c3ncc4c(N5CCOCCC56CC6)nc(OC[C@@]56CCCN5C[C@H](F)C6)nc4c3F)c12` [Compound 43, 5-ethynyl-6-fluoro-4-(8-fluoro-2-(((2R,7aS)-2-fluorotetrahydro-1H-pyrrolizin-7a(5H)-yl)methoxy)-4-(7-oxa-4-azaspiro[2.6]nonan-4-yl)pyrido[4,3-d]pyrimidin-7-yl)naphthalen-2-ol trifluoroacetic acid], the IC50 was determined as 101 nM in assay [1]; 21.8 nM in assay [2]; 248 nM in the assay with AGS cells (K-Ras G12D); 1850 nM in assay [3]; 76.3 nM in the assay with SW620 cells (K-Ras G12V).

In the case of `C#Cc1cccc2cc(O)cc(-c3ncc4c(N5CCCOCC5)nc(OC[C@@]56CCCN5C[C@H](F)C6)nc4c3F)c12` [Compound 82], the IC50 was 2.93 nM in assay [1]; 13.8 nM in assay [2]; 15.5 nM in the assay with AGS cells (K-Ras G12D); 226 nM in assay [3]; 116 nM with SW620 cells (K-Ras G12V).

With `C#Cc1c(F)ccc2cc(O)cc(-c3ncc4c(N5CCCO[C@H]6C[C@H]65)nc(OC[C@@]56CCCN5C[C@H](F)C6)nc4c3F)c12` (single isomer, unassigned) [Compound 7A], the IC50 with AGS cells (K-Ras G12D) was found to be 175 nM; in assay [3], 1510 nM; in the assay on SW620 cells (K-Ras G12V), 846 nM.

For the compound `C#Cc1c(F)ccc2cc(O)cc(-c3ncc4c(N5CCOCC(=C)C5)nc(OC[C@@]56CCCN5C[C@H](F)C6)nc4c3F)c12` [Compound 24, 5-ethynyl-6-fluoro-4-(8-fluoro-2-(((2R,7aS)-2-fluorotetrahydro-1H-pyrrolizin-7a(5H)-yl)methoxy)-4-(6-methylene-1,4-oxazepan-4-yl)pyrido[4,3-d]pyrimidin-7-yl)naphthalen-2-ol], the IC50 was 23.1 nM in assay [1]; 4.39 nM in assay [2]; 42.4 nM in the assay on AGS cells (K-Ras G12D); 381 nM in assay [3]; 15.3 nM in the assay on SW620 cells (K-Ras G12V).

`C#Cc1c(F)ccc2cc(O)cc(-c3ncc4c(N5CCCOCC5)nc(OCC56CCCN5CC(F)(F)C6)nc4c3F)c12` (centres unmarked) [Compound 9, 4-(2-((2,2-difluorotetrahydro-1H-pyrrolizin-7a(5H)-yl)methoxy)-8-fluoro-4-(1,4-oxazepan-4-yl)pyrido[4,3-d]pyrimidin-7-yl)-5-ethynyl-6-fluoronaphthalen-2-ol]: the IC50 amounted to 66.2 nM in assay [1]; 15.4 nM in assay [2]; 186 nM with AGS cells (K-Ras G12D); 586 nM in assay [3]; 171 nM in the assay on SW620 cells (K-Ras G12V).

For the compound `C#Cc1c(F)ccc2cc(O)cc(-c3ncc4c(N5CCOCC(C)(C)C5)nc(OC[C@@]56CCCN5C[C@H](F)C6)nc4c3F)c12` [Compound 102, 4-(4-(6,6-dimethyl-1,4-oxazepan-4-yl)-8-fluoro-2-(((2R,7aS)-2-fluorotetrahydro-1H-pyrrolizin-7a(5H)-yl)methoxy)pyrido[4,3-d]pyrimidin-7-yl)-5-ethynyl-6-fluoro-naphthalen-2-ol], the IC50 was 192 nM in assay [1] and 47.1 nM in assay [2].

As to `C#Cc1c(F)ccc2cc(O)cc(-c3ncc4c(N5CC6COCC5C6)nc(OC[C@@]56CCCN5C[C@H](F)C6)nc4c3F)c12` (stereo partly drawn) [Compound 94, 4-(4-(3-oxa-6-azabicyclo[3.2.1]octan-6-yl)-8-fluoro-2-(((2R,7aS)-2-fluorotetrahydro-1H-pyrrolizin-7a(5H)-yl)methoxy)pyrido [4,3-d]pyrimidin-7-yl)-5-ethynyl-6-fluoro naphthalen-2-ol], the IC50 in assay [2] was 275 nM.

For the compound `C#Cc1c(F)ccc2cccc(-c3ncc4c(N5CCCOC6CC65)nc(OC[C@@]56CCCN5C[C@H](F)C6)nc4c3F)c12` (stereo partly drawn) [Compound 115, 6-(7-(8-ethynyl-7-fluoronaphthalen-1-yl)-8-fluoro-2-(((2R,7aS)-2-fluorotetrahydro-1H-pyrrolizin-7a(5H)-yl)methoxy)pyrido [4,3-d]pyrimidin-4-yl)-2-oxa-6-azabicyclo [5.1.0]octane], the IC50 in assay [1] came to 46.5 nM; in assay [2] it was 27.9 nM; in the assay with AGS cells (K-Ras G12D), 133 nM; in assay [3], 237 nM; with SW620 cells (K-Ras G12V) it was 163 nM.

In the case of `C#Cc1c(F)ccc2cc(O)cc(-c3ncc4c(N5CC(OC)COCC5C)nc(OC[C@@]56CCCN5C[C@H](F)C6)nc4c3F)c12` (stereo partly drawn) [Compound 106, 5-ethynyl-6-fluoro-4-(8-fluoro-2-(((2R,7aS)-2-fluorotetrahydro-1H-pyrrolizin-7a(5H)-yl)methoxy)-4-(6-methoxy-3-methyl-1,4-oxazepan-4-yl)pyrido[4,3-d]pyrimidin-7-yl)naphthalen-2-ol], the IC50 turned out to be 39.4 nM in assay [1]; 21.5 nM in assay [2]; 98.1 nM with AGS cells (K-Ras G12D); 681 nM in assay [3]; 66.4 nM in the assay on SW620 cells (K-Ras G12V).

Turning to `Oc1cc(-c2ncc3c(N4CCCOCC4)nc(OC[C@@]45CCCN4C[C@H](F)C5)nc3c2F)c2ccccc2c1` [Compound 118, 4-(8-fluoro-2-(((2R,7aS)-2-fluorotetrahydro-1H-pyrrolizin-7a(5H)-yl)methoxy)-4-(1,4-oxazepan-4-yl)pyrido[4,3-d]pyrimidin-7-yl)naphthalen-2-ol], the IC50 was 113 nM in assay [1]; 110 nM in assay [2]; 184 nM in the assay with AGS cells (K-Ras G12D); 1420 nM in assay [3]; 343 nM in the assay with SW620 cells (K-Ras G12V).

The values above are taken from patent US20250019377A1 (JACOBIO PHARMACEUTICALS CO., LTD, priority 2021, published 2025).
